{"source": "a compilation of properties of binary mixtures (doi:10.1016/j.fluid.2006.05.028)", "experiment": "xn = mol fraction of the nth substance listed", "conditions": "298.15 K, 101.3 kPa"}
{"smiles": "O", "note": "+ CCOS(=O)(=O)[O-].CC[n+]1ccn(C)c1", "values": [{"measurement": "electrical conductivity", "setting": "x1 = 1", "value": 0.0026, "unit": "S/m"}]}
{"smiles": "[Br][Al]([Br])[Br]", "note": "+ CC[n+]1ccccc1.[Br-]", "values": [{"measurement": "electrical conductivity", "setting": "x2 = 0.65", "value": 0.292, "unit": "S/m"}]}
{"smiles": "CCOS(=O)(=O)[O-].CC[n+]1ccn(C)c1", "note": "+ O", "values": [{"measurement": "electrical conductivity", "setting": "x1 = 0.004", "value": 1.35, "unit": "S/m"}, {"measurement": "electrical conductivity", "setting": "x1 = 0.0084", "value": 2.11, "unit": "S/m"}, {"measurement": "electrical conductivity", "setting": "x1 = 0.0133", "value": 2.76, "unit": "S/m"}, {"measurement": "electrical conductivity", "setting": "x2 = 0.4084", "value": 1.3, "unit": "S/m"}, {"measurement": "electrical conductivity", "setting": "x2 = 0.5931", "value": 2.03, "unit": "S/m"}, {"measurement": "electrical conductivity", "setting": "x2 = 0.6983", "value": 2.55, "unit": "S/m"}, {"measurement": "electrical conductivity", "setting": "x2 = 0.7663", "value": 3.03, "unit": "S/m"}, {"measurement": "electrical conductivity", "setting": "x2 = 0.8139", "value": 3.54, "unit": "S/m"}, {"measurement": "electrical conductivity", "setting": "x2 = 0.876", "value": 4.14, "unit": "S/m"}, {"measurement": "electrical conductivity", "setting": "x2 = 0.8974", "value": 4.31, "unit": "S/m"}, {"measurement": "electrical conductivity", "setting": "x2 = 0.9148", "value": 4.41, "unit": "S/m"}, {"measurement": "electrical conductivity", "setting": "x2 = 0.9413", "value": 4.43, "unit": "S/m"}, {"measurement": "electrical conductivity", "setting": "x2 = 0.9516", "value": 4.33, "unit": "S/m"}, {"measurement": "electrical conductivity", "setting": "x2 = 0.9606", "value": 4.16, "unit": "S/m"}]}
